Test results taken from patent US20250340543A1, “GPR84 ANTAGONISTS AND USES THEREOF” (Liminal BioSciences Limited, priority 2021, published 2025).

biological target: GPR84 (Homo sapiens (Human), UniProt Q9NQS5); experiment: Gai biosensor BRET assay (GPR84-mediated activation of Gai, antagonist mode against agonist ZQ-16); assay type: cell-based; conditions: HEK293 cells, 200 nmol/L GPR84 agonist ZQ-16, read-out: hGPR84 IC50
Text: Background—The following assays can be used for determination of GPR84 activation in living HEK293 cells. […] The Gai biosensor consists of a Rluc8-tagged Gαi2 subunit, a GFP10-tagged Gγ2 subunit, and an untagged Gβ1. […] Moreover, signaling functions of GPCRs are tightly regulated by endocytosis, the targeting of receptors to endosomes and their sorting to lysosomes or recycling to the plasma membrane. […] Agonist stimulation of GPR84—Rluc8 leads to trafficking of the receptor to EEs, and ensuing increase of the donor concentration relative to the rGFP-FYVE acceptor anchored in the same cellular compartment, and thus results in an increase in BRET signal.
Plasmids—The cDNA clones for human GPR84 receptor, human Gαi2, Gβ1, and Gγ2 were obtained from the cDNA Resource Center (www.cdna.org). GFP10 (F64L, S147P, S202F and H231L variant of Aequorea victoria Green Fluorescent Protein) gBlocks gene fragments (Integrated DNA Technologies, IA) and linker were inserted in frame at the N-terminus of human Gγ2. Rluc8 (A55T, C124A, S130A, K136R, A143M, M185V, M253L, and S287L variant of the Renilla renformis luciferase) gBlocks gene fragment was inserted with linkers in frame in between residues 91 and 92 of Gαi2 or at the C-terminus of GPR84. The FYVE domain from human endofin (residues Q739 to K806) attached in frame at the C terminus of a humanized Renilla GFP (rGFP), were synthesized as gBlocks gene fragments.
Bioluminescence Resonance Energy Transfer (BRET) Measurement—HEK293 cells were transfected with GPR84—Rluc8 and rGFP-FYVE for the EEs trafficking biosensor or with GPR84, Gαi2—Rluc8, GFP10-Gγ2, and Gβ1 for the Gai biosensor. The following day, transiently transfected cells were seeded in 96-well white clear bottom microplates coated with poly-D-lysine and left in culture for 24 hours. Cells were washed once with Tyrode's buffer (140 mmol/L NaCl, 1 mmol/L CaCl2, 2.7 mmol/L KCl, 0.49 mmol/L MgCl2, 0.37 mmol/L NaH2PO4, 5.6 mmol/L glucose, 12 mmol/L NaHCO3, and 25 mmol/L HEPES, pH 7.5) before performing assays in Tyrode's buffer. Test compounds were incubated with cells for 5 (Gai) or 15 (EEs) minutes at 37° C. before addition of 200 nmol/L of the GPR84 agonist ZQ-16 (2-(Hexylthio)-6-hydroxy-4(3H)-pyrimidinone) for 5 minutes at room temperature (Gai) or 30 minutes at 37° C. (EEs). The Rluc8 substrate coelenterazine 400A (Prolume, Lakeside, AZ) was added at a final concentration of […] and BRET readings were collected using an Infinite M1000 microplate reader (Tecan, Morrisville, NC). BRET^2 readings between Rluc8 and GFP10 or rGFP were collected by sequential integration of the signals detected in the 370 to 450 nm (Rluc8) and 510 to 540 nm (GFP10, rGFP) windows. The BRET signal was calculated as the ratio of light emitted by acceptor (GFP10, rGFP) over the light emitted by donor (Rluc8). The values were corrected to net BRET by subtracting the background BRET signal obtained in cells transfected with Rluc8 constructs alone. Ligand-promoted net BRET values were calculated by subtracting vehicle-induced net BRET from ligand-induced net BRET.

Sequence of GPR84 (Q9NQS5 whole entry): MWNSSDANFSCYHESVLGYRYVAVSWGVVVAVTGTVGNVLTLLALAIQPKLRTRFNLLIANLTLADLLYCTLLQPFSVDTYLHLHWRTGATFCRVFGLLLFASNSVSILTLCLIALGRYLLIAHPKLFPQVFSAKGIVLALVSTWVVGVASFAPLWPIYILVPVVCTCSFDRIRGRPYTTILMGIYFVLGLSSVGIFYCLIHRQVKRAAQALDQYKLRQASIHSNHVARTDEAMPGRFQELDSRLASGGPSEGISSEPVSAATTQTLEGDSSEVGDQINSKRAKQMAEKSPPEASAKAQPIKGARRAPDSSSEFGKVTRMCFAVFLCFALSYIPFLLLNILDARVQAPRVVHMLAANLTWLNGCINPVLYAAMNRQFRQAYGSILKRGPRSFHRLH

Row | SMILES | IC50 [µM]
1 | Cc1cc(OC[C@H]2COCCO2)cc(=O)n1[C@H](C)c1ccc(C#CC2CC2)cc1 (stereo in doubt) [Compound I-7] | < 5
2 | Cc1cc(OCC2COCCO2)cc(=O)n1C(C)c1ccc(C#CC2CC2)cc1 (stereo not shown) [Compound I-1] | < 5
3 | COc1cc(OCC2CCOCC2)cc(-c2ccc(-c3ccc(C)nc3)cc2C)n1 [Compound I-3] | < 5
4 | COc1cc(OCC2COCCO2)cc(-c2ccc(-c3ccc(C)nc3)cc2C)n1 (stereo not shown) [Compound I-36] | < 5

Now from value to molecule:

Row | IC50 [µM] | SMILES
5 | 5 to 10 | C(#CC1CC1)c1ccc(-c2cncc(OCC3CCCCO3)c2)cc1 (stereo not shown) [Compound I-25]
6 | 10 to 15 | CCn1c(-c2ccc(C#CC3CC3)cc2)cc(OCC2COCCO2)cc1=O (stereo not shown) [Compound I-26]
7 | < 5 | Cc1cc(OCC2COCCO2)cc(=O)n1Cc1ccc(C#CC2CC2)cc1 (stereo not shown) [Compound I-35]
8 | < 5 | COc1cc(OCC2COCCO2)cc(-c2ccc(OCc3ccccn3)cc2C)n1 (stereo not shown) [Compound I-37]
9 | > 25 | COc1cc(OCC2COCCO2)cc(-c2ccc(-c3ccc(C)nc3)cc2)n1 (stereo not shown) [Compound I-51]

same assay, conditions: compound tested at 10 μM (concentration code D)

Row | SMILES | inhibition at 10 µM [%]
10 | Cc1cc(OC[C@H]2COCCO2)cc(=O)n1[C@H](C)c1ccc(C#CC2CC2)cc1 (stereo in doubt) [Compound I-7] | > 75
11 | Cc1cc(OCC2CCOCC2)cc(=O)n1[C@H](C)c1ccc(C#CC2CC2)cc1 (stereo in doubt) [Compound I-20] | 50 to 75
12 | Cc1cc(OCC2CCOCC2)cc(=O)n1[C@H](C)c1ccc(C#CCO)cc1 (stereo in doubt) [Compound I-61] | 25 to 50
13 | Cc1cc(OC[C@@H]2COCCO2)cc(=O)n1[C@@H](C)c1ccc(C#CC2CC2)cc1 (stereo in doubt) [Compound I-89] | < 25
14 | Cc1cc(OC[C@@H]2CCCCO2)cc(=O)n1[C@H](C)c1ccc(C#CC2CC2)cc1 (stereo in doubt) [Compound I-144] | > 75
15 | Cc1cc(OCC2CCOCC2)cc(=O)n1[C@H](C)c1ccc(N2CC(C)(C)C2)cc1 (stereo in doubt) [Compound I-148] | 25 to 50
16 | Cc1cc(OCc2ncccn2)cc(=O)n1[C@@H](C)Cc1ccc(C#CC2CC2)cc1 (stereo in doubt) [Compound I-277] | < 25
17 | Cc1cc(OCc2ncccn2)cc(=O)n1[C@@H](C)Cc1cccc(C#CC2CC2)c1 (stereo in doubt) [Compound I-282] | < 25
18 | Cc1cc(OC[C@@H]2COCCO2)cc(=O)n1[C@H](C)c1ccc(C#CC2CC2)cc1 [Compound I-6] | > 75
19 | CC(c1ccc(C#CC2CC2)cc1)n1ccc(OCC2COCCO2)cc1=O (stereo not shown) [Compound I-13] | > 75
20 | Cc1cc(OCC2COCCO2)cc(=O)n1Cc1cccc(C#CCNc2ccccc2)c1 (stereo not shown) [Compound I-14] | < 25
21 | CCC(c1ccc(C#CC2CC2)cc1)n1c(C)cc(OCC2COCCO2)cc1=O (stereo not shown) [Compound I-21] | 50 to 75
22 | Cc1nc(OCc2ccc(C#CC3CC3)cc2C)cc(OCC2COCCO2)n1 (stereo not shown) [Compound I-23] | < 25
23 | Cc1cc(OC[C@H]2COCCO2)cc(=O)n1Cc1ccc(F)c(C#CC2CC2)c1 [Compound I-28] | < 25
24 | Cc1cc(OCC(F)(F)F)ccc1-c1cncc(OC[C@H]2COCCO2)c1 [Compound I-32] | 25 to 50
25 | Cc1cc(OC[C@H]2COCCO2)cc(=O)n1[C@@H](C)c1ccc(C#CC2CC2)cc1 [Compound I-44] | 25 to 50

Now from value to molecule:

Row | inhibition at 10 µM [%] | SMILES
26 | < 25 | COCC#Cc1ccc([C@@H](C)n2c(C)cc(OCC3CCOCC3)cc2=O)cc1 (stereo in doubt) [Compound I-83]
27 | 25 to 50 | Cc1cc(OCC2COCCO2)cc(=O)n1[C@H](CO)c1ccc(C#CC2CC2)cc1 (stereo in doubt) [Compound I-147]
28 | > 75 | Cc1cc(OCc2ncccn2)cc(=O)n1[C@H](C)Cc1ccc(C#CC2CC2)cc1 (stereo in doubt) [Compound I-276]
29 | < 25 | Cc1cc(OCc2ncccn2)cc(=O)n1[C@H](C)Cc1cccc(C#CC2CC2)c1 (stereo in doubt) [Compound I-281]
30 | 25 to 50 | Cc1cc(C#CC2CC2)ccc1-c1cncc(OCC2COCCO2)c1 (stereo not shown) [Compound I-43]
31 | 25 to 50 | Cc1cc(OCc2ccccn2)ccc1-c1cc(OCC2COc3ncccc3O2)cc(=O)[nH]1 (stereo not shown) [Compound I-48]
32 | 25 to 50 | Cc1c(C#CC2CC2)cccc1Cn1c(C)cc(OC[C@H]2COCCO2)cc1=O [Compound I-49]
33 | 25 to 50 | CCc1cc(OCC2COCCO2)cc(=O)n1C(C)c1ccc(C#CC2CC2)cc1 (stereo not shown) [Compound I-50]

same assay, conditions: compound tested at 12.5 μM (concentration code E)

Row | inhibition at 12.5 µM [%] | SMILES
34 | < 25 | COc1cc(OCC2COCCO2)cc(-c2ccc(OCc3ccccn3)cc2)n1 (stereo not shown) [Compound I-15]
35 | 50 to 75 | C(#CC1CC1)c1ccc(-c2cncc(OCC3CCCCO3)c2)cc1 (stereo not shown) [Compound I-25]
36 | 25 to 50 | Cc1c(-c2ccc(OCC(F)(F)F)cc2)n(C)c(OCC2COCCO2)cc1=O (stereo not shown) [Compound I-52]

same assay, conditions: compound tested at 25 μM (concentration code G)

Row | SMILES | inhibition at 25 µM [%]
37 | O=c1ncc(-c2ccc(C#CC3CC3)cc2)cn1C[C@H]1CCCCO1 (stereo in doubt) [Compound I-80, 5-(4-(cyclopropylethynyl)phenyl)-1-((tetrahydro-2H-pyran-2-yl)methyl)pyrimidin-2(1H)-one] | < 25
38 | Cc1cc(OCC2COCCO2)cc(=O)n1C(C)c1ccc(C#CC2CC2)cc1 (stereo not shown) [Compound I-1] | > 75
39 | CSc1nc(OCC2COCCO2)cc(-c2cnc(OCC(F)(F)F)cc2C)n1 (stereo not shown) [Compound I-9] | < 25
40 | O=c1nc(OCC2COCCO2)cc(-c2ccc(OCC(F)(F)F)cc2)[nH]1 (stereo not shown) [Compound I-10] | < 25
41 | O=c1cnn(CC2CCCCO2)c(-c2ccc(C#CC3CC3)cc2)c1 (stereo not shown) [Compound I-16] | < 25
42 | COc1cc(OCC2CCCCO2)cc(-c2ccc(-c3ccc(C)nc3)cc2C)n1 (stereo not shown) [Compound I-19] | 50 to 75
43 | COc1nc(OCC2COCCO2)cc(-c2ccc(C#CC3CC3)cc2)n1 (stereo not shown) [Compound I-29] | < 25
44 | Cc1cc(OCC(F)(F)F)ccc1-c1cccc(OCC2COCCO2)n1 (stereo not shown) [Compound I-33] | 25 to 50
45 | Cc1nc(OCC2COCCO2)cc(=O)n1Cc1ccc(C#CC2CC2)cc1 (stereo not shown) [Compound I-34] | 25 to 50
46 | COc1cc(OCC2COCCO2)cc(-c2ccc(-c3ccc(C)nc3)cc2C)n1 (stereo not shown) [Compound I-36] | 25 to 50
47 | COc1cc(OC[C@H]2COCCO2)nc(-c2ccc(OCC(F)(F)F)cc2)c1C [Compound I-39] | 25 to 50
48 | COc1cc(OCC2CCCOC2)cc(-c2ccc(-c3ccc(C)nc3)cc2C)n1 (stereo not shown) [Compound I-45] | 25 to 50
49 | COc1cc(OCC2COCCO2)cc(-c2c(C)cc(OCc3ccccn3)cc2C)n1 (stereo not shown) [Compound I-46] | 25 to 50
50 | Cc1ccc(-c2ccc(-c3nc(OCC4COCCO4)cc(=O)n3C)cc2)cn1 (stereo not shown) [Compound I-47] | 25 to 50
51 | FC(F)(F)COc1ccc(-c2cncc(OCC3COCCO3)c2)cc1 (stereo not shown) [Compound I-53] | 25 to 50
52 | C(#CC1CC1)c1ccc(-c2cc(OCC3CCCCO3)ncn2)cc1 (stereo not shown) [Compound I-54] | < 25
53 | CC(C)c1cc(OCC2COCCO2)cc(OCc2ccc(C#CC3CC3)cc2)n1 (stereo not shown) [Compound I-55] | < 25

Continued, values first:

Row | inhibition at 25 µM [%] | SMILES
54 | < 25 | O=c1cc(OCC2COCCO2)cc(-n2ccc(OCC(F)(F)F)cc2=O)[nH]1 (stereo not shown) [Compound I-5]
55 | < 25 | O=c1cc(OCC2COCCO2)cc(-c2ccc(C#CC3CC3)cc2)[nH]1 (stereo not shown) [Compound I-8]
56 | 50 to 75 | Cc1cc(C#CC2CC2)ccc1-c1cncc(OCC2CCCCO2)c1 (stereo not shown) [Compound I-24]
57 | 50 to 75 | CCn1c(-c2ccc(C#CC3CC3)cc2)cc(OCC2COCCO2)cc1=O (stereo not shown) [Compound I-26]
58 | 25 to 50 | Cn1c(-c2ccc(C#CC3CC3)cc2)nc(OCC2COCCO2)cc1=O (stereo not shown) [Compound I-27]
59 | 25 to 50 | Cc1cc(OCC2COCCO2)cc(=O)n1Cc1ccc(C#CC2CC2)cc1 (stereo not shown) [Compound I-35]
60 | 25 to 50 | COc1cc(OCC2COCCO2)cc(-c2ccc(OCc3ccccn3)cc2C)n1 (stereo not shown) [Compound I-37]
61 | 25 to 50 | Cc1cc(OCC2COCCO2)nc(=O)n1Cc1ccc(C#CC2CC2)cc1 (stereo not shown) [Compound I-38]
62 | < 25 | COc1cc(OCC2COCCO2)cc(-c2ccc(C#CC3CC3)cc2)n1 (stereo not shown) [Compound I-40]
63 | < 25 | COc1nc(OCC2COCCO2)cc(-c2ccc(OCC(F)(F)F)cn2)n1 (stereo not shown) [Compound I-41]
64 | 25 to 50 | COc1cc(OCC2COCCO2)cc(-c2ccc(-c3ccc(C)nc3)cc2)n1 (stereo not shown) [Compound I-51]
